Data on 31 compounds can be found in patent US20230000842A1, “METHODS OF TREATING CARTILAGE DISORDERS THROUGH INHIBITION OF CLK AND DYRK” (SAMUMED, LLC, priority 2019, published 2023).

In one assay the target is CLK2 kinase (Homo sapiens, UniProt P49760). Kind of assay: CLK2 kinase activity assay (Z-lyte FRET).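 Also: FRET read-out as coumarin to fluorescein emission ratio, unphosphorylated peptide as 0% and phosphorylated peptide as 100% controls, duplicate reactions, non-linear regression fit of dose-response curves.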 It counts as biochemical. Conditions: Z-lyte Ser/Thr 6 peptide, 60 μM ATP, 1 h at room temperature.
The target in a further assay is CLK3 kinase (Homo sapiens, UniProt P49761). The experiment in a line: CLK3 kinase activity assay (Z-lyte FRET).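 Also: kinase activity read as coumarin/fluorescein emission ratio by FRET, unphosphorylated peptide as 0% and phosphorylated peptide as 100% control, values from non-linear regression of dose-response curves.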 The format is biochemical. Conditions: Z-lyte Ser/Thr 18 peptide, 156 μM ATP, 1 h at room temperature.
Assay [1] has as its system primary human mesenchymal stem cells (hMSCs). Kind of assay: Chondrogenesis screening using primary human mesenchymal stem cells. It counts as cell-based. Conditions: Homo sapiens, Mesenchymal stem cells, hMSC chondrogenesis; for EC50: concentration required to induce 50% levels of chondrogenesis with TGF-β3 as positive control, read-out: Conc (nM) of 50% TGF-β3 activity; for Emax: maximum activity relative to TGF-β3 (10 ng/mL) positive control, read-out: Max. Activity as % TGF-β3 activity. In short, it runs like this:
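Derived values are EC50 for 50% chondrogenesis, maximal activity and the dose giving it. These come from nodule area in passage 3–6 primary hMSCs, expressed as fold change over the mean of 3 same-plate DMSO wells, 2–3 replicates per concentration. TGF-β3 served as positive control.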

For assay [2], the system named is Wnt pathway activity (SW480 colon carcinoma cells stably expressing the Sp5-Luc reporter). The experiment in a line: Wnt pathway activity screening assay (Sp5-Luc reporter gene assay). Conditions: Homo sapiens, SW480, Table 4; SW480 cells stably expressing Sp5-Luc reporter, 10-point dose-response from 10 μM, 36 to 48 hours. (In general: In a reporter assay the amount or activity of a reporter protein is the signal.)

Sequence of CLK2 kinase (P49760 whole entry): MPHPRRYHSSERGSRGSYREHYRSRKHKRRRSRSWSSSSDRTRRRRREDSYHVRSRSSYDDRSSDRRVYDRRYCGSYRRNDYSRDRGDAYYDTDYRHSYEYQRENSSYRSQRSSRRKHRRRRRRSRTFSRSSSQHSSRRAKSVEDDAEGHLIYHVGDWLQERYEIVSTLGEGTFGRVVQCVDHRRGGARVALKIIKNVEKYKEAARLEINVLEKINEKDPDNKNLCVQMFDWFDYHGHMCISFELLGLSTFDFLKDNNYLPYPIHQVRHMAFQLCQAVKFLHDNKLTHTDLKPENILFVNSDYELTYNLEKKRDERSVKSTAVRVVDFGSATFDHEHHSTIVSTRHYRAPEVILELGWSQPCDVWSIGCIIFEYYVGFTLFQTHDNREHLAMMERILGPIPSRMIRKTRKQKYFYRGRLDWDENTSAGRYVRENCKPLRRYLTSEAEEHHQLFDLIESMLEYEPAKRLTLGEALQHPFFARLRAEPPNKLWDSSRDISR
Sequence of CLK3 kinase (P49761 whole entry): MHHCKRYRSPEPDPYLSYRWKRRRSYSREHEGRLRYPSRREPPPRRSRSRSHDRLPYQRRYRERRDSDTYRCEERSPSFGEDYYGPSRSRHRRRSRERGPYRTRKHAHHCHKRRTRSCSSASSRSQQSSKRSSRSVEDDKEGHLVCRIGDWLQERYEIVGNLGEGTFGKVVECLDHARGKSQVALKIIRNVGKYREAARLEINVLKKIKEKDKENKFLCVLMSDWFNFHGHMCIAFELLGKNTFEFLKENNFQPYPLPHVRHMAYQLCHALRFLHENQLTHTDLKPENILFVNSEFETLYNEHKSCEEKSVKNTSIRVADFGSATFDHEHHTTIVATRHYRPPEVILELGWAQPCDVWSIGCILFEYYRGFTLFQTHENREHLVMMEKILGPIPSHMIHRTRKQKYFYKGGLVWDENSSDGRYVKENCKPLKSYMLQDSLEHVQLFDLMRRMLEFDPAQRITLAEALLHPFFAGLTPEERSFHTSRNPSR

Consider `CCC(=O)Nc1cncc(-c2cnc3[nH]nc(-c4nc5c(-c6ccsc6)cccc5[nH]4)c3c2)c1` [compound 243], for which the EC50 on CLK2 kinase turned out to be 5 nM; on CLK3 kinase, 62 nM; in assay [1] it was 100 nM; in assay [2], 10 nM. In assay [1], the Emax was 167%.
In the case of `O=C(Nc1cncc(-c2cnc3[nH]nc(-c4nc5c(-c6cccc(F)c6)cncc5[nH]4)c3c2)c1)N1CCOCC1` [compound 127], the EC50 on CLK2 kinase turned out to be 6 nM; at CLK3 kinase, 42 nM; in assay [2], 9 nM. In assay [1], the Emax is 96.8%.
For `CCNCc1cncc(-c2cnc3[nH]nc(-c4nc5c(-c6cccc(F)c6)cccc5[nH]4)c3c2)c1` [compound 134] the same measures were 6 nM, 76 nM, 40.9 nM and 98.7%.
Take `CC(C)CC(=O)Nc1cncc(-c2ccc3[nH]nc(-c4nc5c(-c6ccc(Cl)s6)cncc5[nH]4)c3n2)c1` [compound 266]: the EC50 came to 15 nM on CLK2 kinase, 67 nM on CLK3 kinase, 10 nM in assay [1] and 1480 nM in assay [2]. Besides, in assay [1], the Emax worked out at 60.6%.
As to `Fc1cccc(-c2nccc3[nH]c(-c4n[nH]c5ccc(-c6cncc(CN7CCCCC7)c6)nc45)cc23)c1` [compound 312], the EC50 amounted to 4 nM on CLK2 kinase, 252 nM at CLK3 kinase and 3750 nM in assay [2]. In addition, the Emax in assay [1] amounted to 48%.
Consider `Cc1ccncc1-c1cc2c(-c3nc4c(-c5cc(F)cc(CNS(C)(=O)=O)c5)cccc4[nH]3)n[nH]c2cn1` [compound 288], for which the EC50 on CLK2 kinase is 11 nM; at CLK3 kinase it was 37 nM; in assay [1], 30 nM; in assay [2], 30.4 nM. The Emax in assay [1] was found to be 81.8%.
With `CC(C)CC(=O)Nc1ccncc1NC(=O)c1n[nH]c2ccc(-c3cncc(CN4CCCCC4)c3)cc12` [compound 85], the EC50 worked out at 7 nM at CLK2 kinase, 1800 nM at CLK3 kinase and 25 nM in assay [2]. Besides, the Emax in assay [1] came out at 45.4%.
`c1cncc(-c2ccc3[nH]nc(-c4nc5cnccc5[nH]4)c3n2)c1` [compound 201]: the EC50 at CLK2 kinase is 15 nM; at CLK3 kinase it was 2270 nM; in assay [1], 30 nM; in assay [2], above 10000 nM. The Emax in assay [1] worked out at 54.8%.
With `COc1cncc(-c2cc3c(-c4nc5c(-c6cccc(F)c6)cncc5[nH]4)n[nH]c3cn2)c1` [compound 147], the EC50 was determined as 9 nM on CLK2 kinase, 493 nM on CLK3 kinase, 300 nM in assay [1] and 31.3 nM in assay [2]. Also, in assay [1], the Emax amounted to 140%.
For `CS(=O)(=O)NCc1cc(F)cc(-c2cncc3[nH]c(-c4n[nH]c5ccc(-c6cncc(NC(=O)C7CC7)c6)nc45)cc23)c1` [compound 526] the same measures were 4 nM, 140 nM, 10 nM, 1300 nM and 82.9%.
For `Cc1ccc(NC(=O)c2n[nH]c3ccc(-c4cncc(CN5CCCCC5)c4)cc23)cn1` [compound 78] the same measures were 1 nM, 44 nM, 30 nM, 57 nM and 102%.
For `CC(C)Nc1cncc(-c2ccc3[nH]nc(-c4nc5c(-c6ccoc6)nccc5[nH]4)c3c2)c1` [compound 236] the same measures were 19 nM, 205 nM, 30 nM, 43.5 nM and 90.2%.
In the case of `O=C(Nc1cncc(-c2cnc3[nH]nc(-c4cc5c(-c6ccccc6F)cncc5[nH]4)c3c2)c1)C1CC1` [compound 329], the EC50 at CLK2 kinase was found to be 8 nM; at CLK3 kinase it was 42 nM; in assay [2] it was 390 nM. Besides, in assay [1], the Emax came out at 52.1%.
`FC1(F)CCN(Cc2cncc(-c3ccc4[nH]nc(-c5cc6c(N7CCCCC7)cccc6[nH]5)c4c3)c2)C1` [compound 467]: the EC50 on CLK2 kinase turned out to be 12 nM; at CLK3 kinase, 279 nM; in assay [1] it was 30 nM; in assay [2], 750 nM. In addition, the Emax in assay [1] was found to be 160%.
For `Cc1ccc(-c2nccc3[nH]c(-c4n[nH]c5ccc(-c6cncc(N)c6)cc45)nc23)s1` [compound 272] the same measures were 5 nM, 52 nM, 2700 nM, 1.9 nM and 163%.
For the compound `CC(C)C(=O)Nc1cncc(-c2ccc3[nH]nc(-c4cc5c(-c6cccnc6)cncc5[nH]4)c3c2)c1` [compound 349], the EC50 on CLK2 kinase was found to be 2 nM; on CLK3 kinase, 37 nM; in assay [2], 260 nM. Further, the Emax in assay [1] is 34.5%.
On to `Fc1ccccc1-c1nccc2[nH]c(-c3n[nH]c4cnc(-c5cncc(CN6CCCC6)c5)cc34)cc12` [compound 338], for which the EC50 at CLK2 kinase amounted to 5 nM; at CLK3 kinase, 222 nM; in assay [1], 10 nM; in assay [2], 1980 nM. The Emax in assay [1] amounted to 69.4%.
Turning to `c1csc(-c2nccc3[nH]c(-c4n[nH]c5cnc(-c6cncc(CN7CCCCC7)c6)cc45)cc23)c1` [compound 509], the EC50 is 6 nM at CLK2 kinase, 140 nM on CLK3 kinase, 10 nM in assay [1] and 3680 nM in assay [2]. For the same compound, the Emax in assay [1] worked out at 59%.
Take `O=C(Nc1cncc(-c2cnc3[nH]nc(-c4cc5c(-c6cccnc6)cccc5[nH]4)c3c2)c1)C1CCC1` [compound 355]: the EC50 was 8 nM at CLK2 kinase, 151 nM on CLK3 kinase and 202 nM in assay [2]. The Emax in assay [1] was determined as 41.3%.
For `CC(C)Nc1cncc(-c2cnc3[nH]nc(-c4cc5c(N6CCCCC6)nccc5[nH]4)c3c2)c1` [compound 463] the same measures were 13 nM, 1280 nM, 3410 nM and 33.6%.
Regarding `CCCC(=O)Nc1cncc(-c2cnc3[nH]nc(-c4nc5c(-c6ccoc6)cccc5[nH]4)c3c2)c1` [compound 230], the EC50 at CLK2 kinase is 4 nM; at CLK3 kinase it was 87 nM; in assay [1] it was 100 nM; in assay [2], 63 nM. In addition, the Emax in assay [1] was 111%.
As for `CC(C)(C)C(=O)Nc1cncc(-c2cc3c(-c4nc5c(-c6ccc(F)s6)nccc5[nH]4)n[nH]c3cn2)c1` [compound 263], the EC50 was 18 nM at CLK2 kinase, 358 nM at CLK3 kinase and 35.3 nM in assay [2]. For the same compound, the Emax in assay [1] was found to be 40.9%.
Consider `CN1CCN(c2cncc3[nH]c(-c4n[nH]c5ccc(-c6cccnc6)cc45)nc23)CC1` [compound 213], for which the EC50 turned out to be 1 nM on CLK2 kinase, 51 nM on CLK3 kinase and 53 nM in assay [2]. In addition, the Emax in assay [1] was 80.6%.
As to `CCC(=O)Nc1cncc(-c2cnc3[nH]nc(-c4nc5c(-c6ccc(F)cc6)cncc5[nH]4)c3c2)c1` [compound 160], the EC50 on CLK2 kinase is 3 nM; at CLK3 kinase it was 37 nM; in assay [1] it was 300 nM; in assay [2], 11 nM. The Emax in assay [1] came out at 143%.
`CCNCc1cncc(-c2ccc3[nH]nc(-c4cc5c(-c6cccnc6)ccnc5[nH]4)c3c2)c1` [compound 365]: the EC50 at CLK2 kinase was 13 nM; on CLK3 kinase it was 443 nM; in assay [2], above 10000 nM. In addition, the Emax in assay [1] turned out to be 28.7%.
Turning to `FC1(F)CCN(Cc2cncc(-c3cnc4[nH]nc(-c5cc6c(-c7ccoc7)cccc6[nH]5)c4c3)c2)C1` [compound 503], the EC50 at CLK2 kinase worked out at 10 nM; at CLK3 kinase, 104 nM; in assay [1], 30 nM; in assay [2], 1000 nM. For the same compound, the Emax in assay [1] was found to be 72.1%.
For `FC1(F)CCN(Cc2cncc(-c3ccc4[nH]nc(-c5cc6cccnc6[nH]5)c4n3)c2)C1` [compound 447] the same measures were 2 nM, 37 nM, 100 nM, 104 nM and 134%.
For the compound `c1cncc(-c2cnc3[nH]nc(-c4nc5c(-c6cccs6)cccc5[nH]4)c3c2)c1` [compound 254], the EC50 is 3 nM on CLK2 kinase, 43 nM on CLK3 kinase and 12 nM in assay [2]. In assay [1], the Emax came to 41.6%.
With `c1cncc(-c2ccc3[nH]nc(-c4nc5c(-c6cccnc6)cncc5[nH]4)c3n2)c1` [compound 184], the EC50 on CLK2 kinase was 1 nM; on CLK3 kinase it was 177 nM; in assay [1], 30 nM; in assay [2] it was above 10000 nM. In addition, the Emax in assay [1] was found to be 83.8%.
For `CN1CCN(c2ccc(NC(=O)c3n[nH]c4ccc(-c5cncc(CN6CCC(F)(F)C6)c5)cc34)cn2)CC1` [compound 73] the same measures were 1 nM, 11 nM, 30 nM, 4 nM and 80.9%.
As for `O=C(Nc1cncc(-c2cc3c(-c4cc5c(-c6cccnc6)cccc5[nH]4)n[nH]c3cn2)c1)C1CC1` [compound 354], the EC50 amounted to 12 nM on CLK2 kinase, 537 nM on CLK3 kinase, 100 nM in assay [1] and 330 nM in assay [2]. The Emax in assay [1] came out at 308%.
